In ChEMBL document CHEMBL1153594, “Design, synthesis and biological evaluation of novel 2-[(2,4-diaryl-3-azabicyclo[3.3.1]nonan-9-ylidene)hydrazono]-1,3-thiazolidin-4-ones as a new class of antimicrobial agents” (2009):
≈ marks a conversion by molar mass, not a printed value. Calls of active or inactive are those of the source. The rule behind the calls is not given here.

Experiments:
Bacillus subtilis = assay: Antibacterial activity against Bacillus subtilis ATCC 451 after 24 hrs by twofold serial dilution method; assay type: functional; conditions: ATCC 451, 24 h
Aspergillus flavus [1] = assay: Antifungal activity against Aspergillus flavus ATCC 485 after 72 to 96 hrs by twofold serial dilution method; assay type: functional
Klebsiella pneumoniae = assay: Antibacterial activity against Klebsiella pneumoniae ATCC 15490 after 24 hrs by twofold serial dilution method; assay type: functional; conditions: ATCC 15490, 24 h
[2] = tested on: Salmonella enterica subsp. enterica; assay: Antibacterial activity against Salmonella typhi ATCC 24915 after 24 hrs by twofold serial dilution method; assay type: functional, Salmonella enterica subsp. enterica serovar Typhi; conditions: ATCC 24915, 24 h
Candida albicans = assay: Antifungal activity against Candida albicans ATCC 3122 by twofold serial dilution method; assay type: functional
Aspergillus niger = assay: Antifungal activity against Aspergillus niger ATCC 598 after 72 to 96 hrs by twofold serial dilution method; assay type: functional
Rhizopus [3] = assay: Antifungal activity against Rhizopus sp. ATCC 2915 after 72 to 96 hrs by twofold serial dilution method; assay type: functional
Cryptococcus neoformans = assay: Antifungal activity against Cryptococcus neoformans ATCC 3312 after 72 to 96 hrs by twofold serial dilution method; assay type: functional
Escherichia coli [4] = assay: Antibacterial activity against Escherichia coli ATCC 25835 at 200 ug/mL after 24 hrs by twofold serial dilution method; assay type: functional, organism-based
Staphylococcus aureus = assay: Antibacterial activity against Staphylococcus aureus ATCC 25825 after 24 hrs by twofold serial dilution method; assay type: functional; conditions: ATCC 25825, 24 h
Escherichia coli [5] = assay: Antibacterial activity against Escherichia coli ATCC 25835 after 24 hrs by twofold serial dilution method; assay type: functional; conditions: ATCC 25835, 24 h
Aspergillus flavus [6] = assay: Antifungal activity against Aspergillus flavus ATCC 485 at 200 ug/mL after 72 to 96 hrs by twofold serial dilution method; assay type: functional, organism-based
Rhizopus [7] = assay: Antifungal activity against Rhizopus sp. ATCC 2915 at 200 ug/mL after 72 to 96 hrs by twofold serial dilution method; assay type: functional, organism-based
[8] = tested on: Salmonella enterica subsp. enterica; assay: Antibacterial activity against Salmonella typhi ATCC 24915 at 200 ug/mL after 24 hrs by twofold serial dilution method; assay type: functional, organism-based; conditions: Salmonella enterica subsp. enterica serovar Typhi

Row | SMILES | MIC (Bacillus subtilis) [mg/L] | MIC (Aspergillus flavus [1]) [mg/L] | MIC (Klebsiella pneumoniae) [mg/L] | MIC [2] [mg/L] | MIC (Candida albicans) [mg/L] | MIC (Aspergillus niger) [mg/L] | MIC (Rhizopus [3]) [mg/L] | MIC (Cryptococcus neoformans) [mg/L] | MIC (Escherichia coli [4]) | MIC (Staphylococcus aureus) [mg/L] | MIC (Escherichia coli [5]) [mg/L] | MIC (Aspergillus flavus [6]) | MIC (Rhizopus [7]) | MIC [8]
1 | NC(=S)NN=C1C2CCCC1C(c1ccc(F)cc1)NC2c1ccc(F)cc1 (stereo not given) | 25 (≈ 62.4 µM) | 6.25 (≈ 15.6 µM) | 100 (≈ 250 µM) | 12.5 (≈ 31.2 µM) | 50 (≈ 125 µM) | 100 (≈ 250 µM) | 100 (≈ 250 µM) | 25 (≈ 62.4 µM) | inactive | 50 (≈ 125 µM) | – | – | – | –
2 | COc1cccc(C2NC(c3cccc(OC)c3)C3CCCC2C3=N/N=C2/NC(=O)CS2)c1 (stereo not given) | 100 (≈ 215 µM) | 200 (≈ 430 µM) | 50 (≈ 108 µM) | 6.25 (≈ 13.5 µM) | 50 (≈ 108 µM) | 50 (≈ 108 µM) | 100 (≈ 215 µM) | 100 (≈ 215 µM) | – | 100 (≈ 215 µM) | 50 (≈ 108 µM) | – | – | –
3 | NC(=S)NN=C1C2CCCC1C(c1ccccc1Cl)NC2c1ccccc1Cl (stereo not given) | 100 (≈ 231 µM) | 100 (≈ 231 µM) | 50 (≈ 115 µM) | 50 (≈ 115 µM) | 200 (≈ 461 µM) | 100 (≈ 231 µM) | 25 (≈ 57.7 µM) | 100 (≈ 231 µM) | – | 200 (≈ 461 µM) | 100 (≈ 231 µM) | – | – | –
4 | COc1ccc(C2NC(c3ccc(OC)cc3)C3CCCC2C3=N/N=C2/NC(=O)CS2)cc1 (stereo not given) | 50 (≈ 108 µM) | – | 25 (≈ 53.8 µM) | 100 (≈ 215 µM) | 100 (≈ 215 µM) | 100 (≈ 215 µM) | 200 (≈ 430 µM) | 50 (≈ 108 µM) | – | 6.25 (≈ 13.5 µM) | 100 (≈ 215 µM) | inactive | – | –
5 | NC(=S)NN=C1C2CCCC1C(c1ccccc1)NC2c1ccccc1 (stereo not given) | 100 (≈ 274 µM) | 200 (≈ 549 µM) | 200 (≈ 549 µM) | 200 (≈ 549 µM) | 200 (≈ 549 µM) | 200 (≈ 549 µM) | – | 100 (≈ 274 µM) | – | 50 (≈ 137 µM) | 100 (≈ 274 µM) | – | inactive | –
6 | O=C1CS/C(=N\N=C2C3CCCC2C(c2ccc(F)cc2)NC3c2ccc(F)cc2)N1 (stereo not given) | 25 (≈ 56.8 µM) | 100 (≈ 227 µM) | 100 (≈ 227 µM) | 12.5 (≈ 28.4 µM) | 6.25 (≈ 14.2 µM) | 200 (≈ 454 µM) | 100 (≈ 227 µM) | 25 (≈ 56.8 µM) | – | 6.25 (≈ 14.2 µM) | 50 (≈ 114 µM) | – | – | –
7 | Cc1ccc(C2NC(c3ccc(C)cc3)C3CCCC2C3=NNC(N)=S)cc1 (stereo not given) | 100 (≈ 255 µM) | – | 100 (≈ 255 µM) | – | 200 (≈ 509 µM) | 200 (≈ 509 µM) | 100 (≈ 255 µM) | 200 (≈ 509 µM) | – | 12.5 (≈ 31.8 µM) | 50 (≈ 127 µM) | inactive | – | inactive
8 | O=C1CS/C(=N\N=C2C3CCCC2C(c2ccc(Cl)cc2)NC3c2ccc(Cl)cc2)N1 (stereo not given) | 25 (≈ 52.8 µM) | 100 (≈ 211 µM) | 50 (≈ 106 µM) | 6.25 (≈ 13.2 µM) | 25 (≈ 52.8 µM) | 25 (≈ 52.8 µM) | 6.25 (≈ 13.2 µM) | 12.5 (≈ 26.4 µM) | – | 6.25 (≈ 13.2 µM) | 100 (≈ 211 µM) | – | – | –
9 | COc1cccc(C2NC(c3cccc(OC)c3)C3CCCC2C3=NNC(N)=S)c1 (stereo not given) | 50 (≈ 118 µM) | – | 100 (≈ 236 µM) | 200 (≈ 471 µM) | 50 (≈ 118 µM) | 50 (≈ 118 µM) | 100 (≈ 236 µM) | 100 (≈ 236 µM) | – | 50 (≈ 118 µM) | 25 (≈ 58.9 µM) | inactive | – | –
